The nature of series [1]: in vitro.
Series [2] is described as follows: in vitro. The note with it: chlorocebus aethiops.
The subject of series [3] is YFV. Put plainly: microbe, parasite or virus in culture. Type of series: cell-based, yellow fever virus. The note with it: for EC50: read-out: Yellow fever EC50.
In series [4] the test system is DENV (serotype 2). In words: microbe, parasite or virus in culture. Format: cell-based, Dengue virus serotype 2. To be noted: for EC50: read-out: Dengue EC50.
In series [5] the test system is Vero-B cells (ECACC).
In series [6] the test system is Vero-B cells (ATCCCCL-81).

Like-named read-outs stand apart in the source and are kept apart here.

This note sets out measurements from paper PMC4999056 (European Journal of Medicinal Chemistry, 2016).

A word on the EC50: it is the concentration giving half of the maximal effect.

As to `Cc1ccc(NC(=O)c2nccnc2C(=O)NCc2ccc(-c3ccsc3)cc2)cc1` [6l, N^2-(4-(thiophen-3-yl)benzyl)-N^3-(p-tolyl)pyrazine-2,3-dicarboxamide], the CC50 in series [1] (chlorocebus aethiops) and in series [2] (Yellow fever CC50) was greater than 117 µM throughout. The “Yellow fever SI” value in series [3] is greater than 5. Besides, the 50% effective concentration (EC50) in series [3] (Yellow fever virus, Vero B) stood at 21.5 µM; in series [4] (Dengue virus, Vero B), 14 µM. In addition, the “Dengue SI” value in series [4] is on record as greater than 8. For the same compound, in series [4], the “fold increase in DENV activity for the methyl congener” value came to 10 fold.

The compound `Cc1ccc(NC(=O)c2nccnc2C(=O)Nc2ccccc2-c2cc(C)n[nH]2)cc1` [6n, N^2-(2-(3-methyl-1H-pyrazol-5-yl)phenyl)-N^3-(p-tolyl)pyrazine-2,3-di-carboxamide] displayed a CC50 at 168 h in series [1] (chlorocebus aethiops) of 24 µM. Further, the CC50 in series [2] (Yellow fever CC50) was greater than 13.6 µM. In series [3], the “Yellow fever SI” value is greater than 34. Moreover, the EC50 in series [3] (Yellow fever virus, Vero B) came out at 0.4 µM. Further, in series [4], the “Dengue SI” value was 7 and the “fold reduced DENV inhibitory activity” value is on record as 7 fold. The EC50 in series [4] (Dengue virus, Vero B) was 3.4 µM.

The compound `Cc1ccc(NC(=O)c2ccccc2C(=O)Nc2ccc(C)cc2-c2ccsc2)cc1` [7g, N^1-(4-methyl-2-(thiophen-3-yl)phenyl)-N^2-(p-tolyl)phthalamide] showed a CC50 at 168 h in series [1] (chlorocebus aethiops) of 12.9 µM. The values for the CC50 in series [1] (green monkey) and in series [2] (Yellow fever CC50) were greater than 116 µM and greater than 117 µM, respectively. The “Yellow fever SI” value in series [3] is reported as greater than 60. In addition, the EC50 in series [3] (Yellow fever virus, Vero B) came to 1.9 µM; in series [4] (Dengue virus, Vero B), 0.5 µM; in series [4], 0.7 µM.

On to `Cc1ccc(NC(=O)c2ccccc2C(=O)NCc2ccc(-c3ccsc3)cc2)cc1` [7l, N^1-(4-(thiophen-3-yl)benzyl)-N^2-(p-tolyl)phthalamide], for which the CC50 in series [1] (chlorocebus aethiops) and in series [2] (Yellow fever CC50) was greater than 117 µM throughout. The “Yellow fever SI” value in series [3] is greater than 35. Further, the EC50 in series [3] (Yellow fever virus, Vero B) was found to be 3.3 µM; in series [4] (Dengue virus, Vero B), 13.8 µM. In series [4], the “Dengue SI” value was greater than 8.

With “N^1-(4-fluorophenyl)-N^2-(2-(thiophen-3-yl)benzyl)phthalamide [7i]”, in series [5], the CC50 came to 50 µM. For the same compound, in series [3], the “Yellow fever SI” value is reported as 53 and the EC50 was found to be 1.4 µM. For the same compound, in series [4], the “Dengue SI” value is listed as 17 and the EC50 came out at 3 µM. For the same compound, the CC50 in series [6] came to 75 µM.

For `Cc1ccc(NC(=O)c2ccccc2C(=O)NCc2ccccc2-c2ccsc2)cc1` [7j, N^1-(2-(thiophen-3-yl)benzyl)-N^2-(p-tolyl)phthalamide], the CC50 at 168 h amounted to 50 µM in series [1] (chlorocebus aethiops) and 61 µM in series [2] (Yellow fever CC50). Also, the “Yellow fever SI” value in series [3] was determined as 23. In addition, the EC50 in series [3] (Yellow fever virus, Vero B) amounted to 2.6 µM; in series [4] (Dengue virus, Vero B) it was 3 µM. In addition, the “Dengue SI” value in series [4] was determined as 17.

For `Cc1ccc(NC(=O)c2ccccc2NC(=O)c2ccc(F)cc2)c(-c2ccc(C)s2)c1` [13b, 2-(4-fluorobenzamido)-N-(4-methyl-2-(5-methylthiophen-2-yl)phenyl)benzamide], the CC50 is greater than 113 µM in series [1] (chlorocebus aethiops), greater than 113 µM in series [2] (Yellow fever CC50) and 12.5 µM in series [2] (Yellow fever CC50 (visual)). Moreover, in series [3], the “Yellow fever SI” value is 1. For the same compound, the EC50 in series [3] (Yellow fever virus, Vero B) was greater than 113 µM; in series [4] (Dengue virus, Vero B), 3.2 µM. In series [4], the “Dengue SI” value is recorded as greater than 35.

`Cc1ccc(NC(=O)c2ccccc2C(=O)Nc2ccc(F)cc2)c(-c2cccs2)c1` [7b, N^1-(4-fluorophenyl)-N^2-(4-methyl-2-(thiophen-2-yl)phenyl)phthalamide]: the CC50 in series [1] (chlorocebus aethiops) was greater than 117 µM; in series [2] (Yellow fever CC50) it was greater than 37 µM. For the same compound, the “Yellow fever SI” value in series [3] is greater than 1.6. Further, the EC50 in series [3] (Yellow fever virus, Vero B) is 23.2 µM; in series [4] (Dengue virus, Vero B) it was 4 µM. The “Dengue SI” value in series [4] is on record as greater than 29.

Consider `Cc1ccc(NC(=O)c2ccccc2C(=O)Nc2ccc(F)cc2)c(-c2ccsc2)c1` [7h, N^1-(4-fluorophenyl)-N^2-(4-methyl-2-(thiophen-3-yl)phenyl)phthalamide], for which the CC50 at 168 h came to 47 µM in series [1] (chlorocebus aethiops) and 67 µM in series [2] (Yellow fever CC50). Besides, in series [3], the “Yellow fever SI” value was 10. The EC50 in series [3] (Yellow fever virus, Vero B) amounted to 6.5 µM; in series [4] (Dengue virus, Vero B), 3 µM. Further, the “Dengue SI” value in series [4] turned out to be 16.

On to `O=C(NCc1ccccc1-c1ccsc1)c1nccnc1C(=O)Nc1ccc(F)cc1` [6i, N^2-(4-fluorophenyl)-N^3-(2-(thiophen-3-yl)benzyl)pyrazine-2,3-dicarboxamide], for which the results for the CC50 at 168 h in series [1] (chlorocebus aethiops) and in series [2] (Yellow fever CC50) were 52 µM and 76 µM, respectively. For the same compound, the “Yellow fever SI” value in series [3] is recorded as 19. For the same compound, the EC50 is 3.9 µM in series [3] (Yellow fever virus, Vero B) and 24 µM in series [4] (Dengue virus, Vero B). Also, the “Dengue SI” value in series [4] is 2.
